Values of other authors in patent US20250099551A1, “THERMOSTABLE FORMULATION OF A21G HUMAN INSULIN” (priority 2018, published 2025).

Conditions: 25° C.

| Structure (SMILES) | Metal binding stability constant log K for zinc |
| --- | --- |
| O=C(O)CN(CCN(CC(=O)O)CC(=O)O)CC(=O)O [EDTA] | 14.5 |
| O=C(O)CN(CCOCCOCCN(CC(=O)O)CC(=O)O)CC(=O)O [EGTA] | 12.6 |
| O=C(O)CC(O)(CC(=O)O)C(=O)O [citrate] | 4.93 |
| N[C@@H](Cc1c[nH]cn1)C(=O)O [histidine] | 6.91 |
